Test results published in US20140371304A1, “METHOD FOR SUPPRESSING TUMORIGENICITY OF STEM CELLS” (SUCAMPO AG, priority 2013, published 2014).

System: C57/BL6 mouse embryonic stem cells
Assay: Tumor formation in SCID-beige mice from mouse embryonic stem cells pre-treated with compound
Type: in vivo
Conditions: for Weight of kidney capsule tumor, mean / Volume of kidney capsule tumor, (after harvesting) mean / Volume of kidney capsule tumor, (within mice) mean / Weight of testis tumor, mean / Volume of testis tumor, (after harvesting) mean / Volume of testis tumor, (within mice) mean: MES cells treated with 1 micromolar for total 120 hrs, 1×10^6 cells/site injected to Fox Chase SCID-beige mice, 3 weeks post injection; for Weight of kidney capsule tumor, mean / Weight of testis tumor, mean: after harvesting; for Volume of kidney capsule tumor, (after harvesting) mean / Volume of testis tumor, (after harvesting) mean: measured after harvesting; for Volume of kidney capsule tumor, (within mice) mean / Volume of testis tumor, (within mice) mean: measured before harvesting; for tumorigenic potential of mouse ES cells: conclusion in words; for tumorigenic potential of mouse ES cells / volume and weight of the tumor tissues in kidneys and testes: MES cells treated with 1 micromolar, injected to SCID-beige mice; for volume and weight of the tumor tissues in kidneys and testes: result in words
Procedure: ESGRO COMPLETE™ C57/BL6 mouse embryonic stem cells (MES, Millipore # SF-CMTI-2) were grown in 0.1% gelatin coated T75 culture flasks using ESGRO complete serum free clonal grade medium (Millipore # SF001-B) and ESGRO complete supplement (Millipore # SF012-250, containing selective GSK3β inhibitor). Cells were treated for 96 hrs with either 1 micromolar of Compound-1 ((−)-7-[(2R,4aR,5R,7aR)-2-(1,1-difluoropentyl)-2-hydroxy-6-oxooctahydrocyclopenta[b]pyran-5-yl]heptanoic acid), Compound-2 ((+)-isopropyl (Z)-7-[(1R,2R,3R,5S)-3,5-dihydroxy-2-(3-oxodecyl)cyclopentyl]hept-5-enoate) or vehicle (0.1% DMSO) until they reached 60% confluence. Drugs and media were changed daily. Cells were incubated in the presence of freshly added drug for 96 hrs, and then tested for mycoplasma over the next 24 hrs. Therefore, the cells were exposed to vehicle or Compound-1 or -2 for a total of 120 hrs. The cells were harvested and mixed with 30% matrigel. The mixture was injected to Fox Chase SCID-beige mice at 1×10^6 cells/site Tumors were collected after 3 weeks of post injection from kidney and testis. Tumor volumes were measured before and after harvesting from the mice. Tumor weight was also measured after harvesting from mice.

Row | Compound | Weight of kidney capsule tumor, mean [g] | Volume of kidney capsule tumor, (after harvesting) mean [cm^3] | Volume of kidney capsule tumor, (within mice) mean [cm^3] | Weight of testis tumor, mean [g] | Volume of testis tumor, (after harvesting) mean [cm^3] | Volume of testis tumor, (within mice) mean [cm^3] | tumorigenic potential of mouse ES cells | volume and weight of the tumor tissues in kidneys and testes
1 | CCCCC(F)(F)[C@@]1(O)CC[C@H]2[C@@H](CC(=O)[C@@H]2CCCCCCC(=O)O)O1 [Compound-1, (−)-7-[(2R,4aR,5R,7aR)-2-(1,1-difluoropentyl)-2-hydroxy-6-oxooctahydrocyclopenta[b]pyran-5-yl]heptanoic acid] | 1.40 | 2.10 | 5.6 | 1.87 | 3.70 | 10.42 | greatly reduce | reduced
2 | CCCCCCCC(=O)CC[C@@H]1[C@@H](C/C=C\CCCC(=O)OC(C)C)[C@@H](O)C[C@H]1O [Compound-2, (+)-isopropyl (Z)-7-[(1R,2R,3R,5S)-3,5-dihydroxy-2-(3-oxodecyl)cyclopentyl]hept-5-enoate] | 2.13 | 5.44 | 9.12 | 1.33 | 2.68 | 5.66 | greatly reduce | reduced
